Measured values taken from ChEMBL document CHEMBL4842352, “Novel diarylamides and diarylureas with N-substitution dependent activity against medulloblastoma” (Eur J Med Chem, 2021).
Activity calls are given as the source filed them. The rule behind the calls is not given here.

Key:
ONS-76 [1] = test: Cytotoxicity against human ONS-76 cells assessed as reduction in cell viability incubated for 72 hrs by MTT assay; type: functional, cell-based; conditions: ONS-76, 72 h
Daoy [2] = test: Cytotoxicity against human DAOY cells assessed as reduction in cell viability incubated for 72 hrs by MTT assay; type: functional, cell-based
ONS-76 [3] = test: Potency index, ratio of 1-(naphthalen-1-yl)-3-(3,4,5-trimethoxyphenyl)urea IC50 to test compound IC50 for cytotoxicity against human ONS-76 cells assessed as reduction in cell viability incubated for 72 hrs by MTT assay; type: functional
Daoy [4] = test: Potency index, ratio of 1-(naphthalen-1-yl)-3-(3,4,5-trimethoxyphenyl)urea IC50 to test compound IC50 for cytotoxicity against human DAOY cells assessed as reduction in cell viability incubated for 72 hrs by MTT assay; type: functional
[5] = molecular target: Cyclin-dependent kinase 2 (Homo sapiens) (UniProt P24941); test: Inhibition of CDK2 (unknown origin) at 100 uM
[6] = molecular target: Vascular endothelial growth factor receptor 2 (Homo sapiens) (UniProt P35968); test: Inhibition of VEGFR2 (unknown origin) at 100 uM
[7] = molecular target: Insulin-like growth factor 1 receptor (Homo sapiens) (UniProt P08069); test: Inhibition of IGF-1R (unknown origin) at 100 uM
[8] = molecular target: T1, Aurora kinase A (Homo sapiens) (UniProt O14965); test: Inhibition of Aurora A (unknown origin) at 100 uM relative to control
T1 sequence (whole entry): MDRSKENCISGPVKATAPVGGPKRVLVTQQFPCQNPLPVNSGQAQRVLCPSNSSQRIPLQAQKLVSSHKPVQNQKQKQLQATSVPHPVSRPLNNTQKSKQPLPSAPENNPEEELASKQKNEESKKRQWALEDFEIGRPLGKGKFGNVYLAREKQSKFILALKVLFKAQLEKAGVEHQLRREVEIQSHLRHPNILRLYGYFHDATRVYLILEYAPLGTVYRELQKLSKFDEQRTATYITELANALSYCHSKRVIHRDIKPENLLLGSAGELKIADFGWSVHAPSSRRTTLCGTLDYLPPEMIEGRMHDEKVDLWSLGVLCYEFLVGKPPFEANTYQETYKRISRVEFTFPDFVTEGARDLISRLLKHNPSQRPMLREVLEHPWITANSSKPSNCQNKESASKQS

Sequence of Vascular endothelial growth factor receptor 2 (Homo sapiens) (P35968 whole entry): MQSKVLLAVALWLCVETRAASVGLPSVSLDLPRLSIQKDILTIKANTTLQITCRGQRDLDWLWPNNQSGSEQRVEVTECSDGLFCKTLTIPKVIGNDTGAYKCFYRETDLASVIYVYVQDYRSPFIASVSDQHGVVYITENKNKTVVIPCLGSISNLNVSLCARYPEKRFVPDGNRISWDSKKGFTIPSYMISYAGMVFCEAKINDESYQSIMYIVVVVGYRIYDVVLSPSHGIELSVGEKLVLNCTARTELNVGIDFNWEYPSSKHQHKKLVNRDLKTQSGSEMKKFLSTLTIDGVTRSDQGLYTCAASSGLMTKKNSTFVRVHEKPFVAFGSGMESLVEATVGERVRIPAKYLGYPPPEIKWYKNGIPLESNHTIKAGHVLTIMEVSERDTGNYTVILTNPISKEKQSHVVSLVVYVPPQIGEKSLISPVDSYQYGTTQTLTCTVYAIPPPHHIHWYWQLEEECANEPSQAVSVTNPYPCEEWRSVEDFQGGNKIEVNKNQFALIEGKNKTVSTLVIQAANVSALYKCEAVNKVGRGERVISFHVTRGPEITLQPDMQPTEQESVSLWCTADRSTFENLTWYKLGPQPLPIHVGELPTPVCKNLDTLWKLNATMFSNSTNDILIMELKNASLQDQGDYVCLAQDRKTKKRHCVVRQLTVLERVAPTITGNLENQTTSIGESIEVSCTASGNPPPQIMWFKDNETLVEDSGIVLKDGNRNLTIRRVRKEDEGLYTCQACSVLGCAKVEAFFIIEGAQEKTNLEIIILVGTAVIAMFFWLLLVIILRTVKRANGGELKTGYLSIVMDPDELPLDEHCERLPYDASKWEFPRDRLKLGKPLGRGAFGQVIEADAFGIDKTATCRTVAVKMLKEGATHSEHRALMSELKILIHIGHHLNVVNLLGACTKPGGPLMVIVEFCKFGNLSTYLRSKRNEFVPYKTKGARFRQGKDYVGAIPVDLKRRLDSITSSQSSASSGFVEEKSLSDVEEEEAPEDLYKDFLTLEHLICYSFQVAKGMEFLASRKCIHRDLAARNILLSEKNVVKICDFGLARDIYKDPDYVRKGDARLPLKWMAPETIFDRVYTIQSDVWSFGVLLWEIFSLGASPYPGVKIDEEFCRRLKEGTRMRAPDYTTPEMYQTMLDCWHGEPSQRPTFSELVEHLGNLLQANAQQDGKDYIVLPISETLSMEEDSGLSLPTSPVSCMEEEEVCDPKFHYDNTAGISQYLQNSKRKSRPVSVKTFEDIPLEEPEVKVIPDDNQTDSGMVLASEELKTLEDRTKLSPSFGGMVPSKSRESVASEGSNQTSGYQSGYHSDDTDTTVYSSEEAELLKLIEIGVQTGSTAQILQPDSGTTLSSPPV
Sequence of Insulin-like growth factor 1 receptor (Homo sapiens) (P08069 31-736 limits assumed): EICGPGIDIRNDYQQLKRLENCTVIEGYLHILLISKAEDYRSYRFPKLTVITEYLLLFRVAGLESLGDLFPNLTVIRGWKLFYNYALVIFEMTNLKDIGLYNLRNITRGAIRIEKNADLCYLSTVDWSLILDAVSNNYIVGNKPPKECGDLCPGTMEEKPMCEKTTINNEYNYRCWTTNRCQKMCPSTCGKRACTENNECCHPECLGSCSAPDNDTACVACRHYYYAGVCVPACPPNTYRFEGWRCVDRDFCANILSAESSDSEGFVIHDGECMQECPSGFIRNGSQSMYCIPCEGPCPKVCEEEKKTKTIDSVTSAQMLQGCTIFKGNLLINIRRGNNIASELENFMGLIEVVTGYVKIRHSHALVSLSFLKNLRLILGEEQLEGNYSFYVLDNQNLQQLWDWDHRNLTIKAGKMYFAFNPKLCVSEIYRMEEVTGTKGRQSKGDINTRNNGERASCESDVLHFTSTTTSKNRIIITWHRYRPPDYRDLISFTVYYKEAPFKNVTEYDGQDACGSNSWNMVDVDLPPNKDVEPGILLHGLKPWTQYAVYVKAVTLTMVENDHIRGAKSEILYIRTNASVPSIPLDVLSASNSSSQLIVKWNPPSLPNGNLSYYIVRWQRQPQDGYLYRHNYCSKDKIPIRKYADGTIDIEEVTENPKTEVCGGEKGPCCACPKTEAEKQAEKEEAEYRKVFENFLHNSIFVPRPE
Sequence of Insulin-like growth factor 1 receptor (Homo sapiens) (P08069 741-1367 limits assumed): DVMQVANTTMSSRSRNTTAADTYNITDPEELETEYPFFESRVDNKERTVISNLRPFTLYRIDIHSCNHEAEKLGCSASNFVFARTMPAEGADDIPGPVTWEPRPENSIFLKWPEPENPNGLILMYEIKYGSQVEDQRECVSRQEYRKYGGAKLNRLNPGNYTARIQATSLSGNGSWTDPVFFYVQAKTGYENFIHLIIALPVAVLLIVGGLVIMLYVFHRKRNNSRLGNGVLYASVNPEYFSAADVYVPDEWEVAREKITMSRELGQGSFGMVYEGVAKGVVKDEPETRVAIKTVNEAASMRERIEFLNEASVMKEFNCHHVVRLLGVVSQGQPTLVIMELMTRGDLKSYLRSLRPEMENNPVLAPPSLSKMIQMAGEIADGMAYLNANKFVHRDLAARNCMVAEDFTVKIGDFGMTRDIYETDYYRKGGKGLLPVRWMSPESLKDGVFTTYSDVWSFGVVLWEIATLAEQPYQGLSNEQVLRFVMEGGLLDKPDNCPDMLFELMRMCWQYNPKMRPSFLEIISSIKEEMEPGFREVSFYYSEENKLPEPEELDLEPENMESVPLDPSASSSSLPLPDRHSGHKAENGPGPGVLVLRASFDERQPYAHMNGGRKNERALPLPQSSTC

Compound | IC50 (ONS-76 [1]) [µM] | IC50 (Daoy [2]) [µM] | also measured
COc1cc(N(C)C(=O)c2ccc(F)cc2)cc(OC)c1OC | ≥ 125 | ≥ 125 | –
COc1cc(N(C)C(=O)N(C)c2cccc([N+](=O)[O-])c2)cc(OC)c1OC | ≥ 125 | ≥ 125 | –
COc1cc(NC(=O)Nc2c3ccccc3cc3ccccc23)cc(OC)c1OC | 10 | ≥ 125 | Ratio IC50 (ONS-76 [3]): 0.25
COc1cc(NC(=O)Nc2cccc3cc[nH]c23)cc(OC)c1OC | ≥ 125 | ≥ 125 | –
COc1cc(NC(=O)c2cccc(F)c2)cc(OC)c1OC | ≥ 125 | ≥ 125 | –
COc1cc(NC(=O)c2ccc(F)cc2)cc(OC)c1OC | ≥ 125 | ≥ 125 | –
COc1cc(NC(=O)c2cccc3ccccc23)cc(OC)c1OC | 26.8 | 48.7 | –
COc1cc(N(C)C(=O)c2cccc([N+](=O)[O-])c2)cc(OC)c1OC | ≥ 125 | ≥ 125 | –
COc1cc(NC(=O)c2cccc([N+](=O)[O-])c2)cc(OC)c1OC | ≥ 125 | ≥ 125 | –
COc1cc(N(C)C(=O)N(C)c2ccc([N+](=O)[O-])cc2)cc(OC)c1OC | ≥ 125 | ≥ 125 | –
COc1cc(N(C)C(=O)c2cccc3ccccc23)cc(OC)c1OC | 65.7 | ≥ 125 | –
COc1cc(N(C)C(=O)c2cccc(F)c2)cc(OC)c1OC | ≥ 125 | ≥ 125 | –
COc1cc(NC(=O)Nc2cccc(F)c2)cc(OC)c1OC | 65.5 | 111 | –
COc1cc(NC(=O)Nc2ccc(F)cc2)cc(OC)c1OC | 63.2 | 104 | –
COc1cc(NC(=O)c2ccc([N+](=O)[O-])cc2)cc(OC)c1OC | ≥ 125 | 52.9 | –
COc1cc(N(C)C(=O)N(C)c2cccc3ccccc23)cc(OC)c1OC | ≥ 125 | ≥ 125 | –
COc1cc(N(C)C(=O)N(C)c2cccc(F)c2)cc(OC)c1OC | ≥ 125 | ≥ 125 | –

Compound | IC50 (ONS-76 [1]) [µM] | IC50 (Daoy [2]) [µM] | also measured
COc1cc(NC(=O)Nc2cccc3ncccc23)cc(OC)c1OC | ≥ 125 | 4 | Ratio IC50 (Daoy [4]): 1.5
COc1cc(N(C)C(=O)N(C)c2ccc(F)cc2)cc(OC)c1OC | ≥ 125 | ≥ 125 | –
COc1ccc(N(C)C(=O)N(C)c2cc(OC)c(OC)c(OC)c2)cc1 | ≥ 125 | ≥ 125 | –
COc1cc(NC(=O)Nc2cccc3c2CCC3)cc(OC)c1OC | ≥ 125 | 0.47 | Ratio IC50 (Daoy [4]): 12.4
COc1cc(NC(=O)Nc2ccc3c(ccn3C)c2)cc(OC)c1OC | ≥ 125 | 0.16 | Ratio IC50 (Daoy [4]): 36.5
COc1ccc(C(=O)Nc2cc(OC)c(OC)c(OC)c2)cc1 | ≥ 125 | ≥ 125 | –
COc1cc(NC(=O)Nc2cccc([N+](=O)[O-])c2)cc(OC)c1OC | 79.6 | 82.5 | –
COc1cc(NC(=O)Nc2cccc3ccccc23)cc(OC)c1OC | 2.45 | 5.84 | –
COc1cc(NC(=O)Nc2ccc(O)c3ccccc23)cc(OC)c1OC | 2.5 | 0.1 | Ratio IC50 (ONS-76 [3]): 0.98; inhibition [5]: inactive; inhibition [6]: inactive; inhibition [7]: inactive; inhibition [8]: 30%; Ratio IC50 (Daoy [4]): 58.4
COc1cc(NC(=O)Nc2cccc3cc(O)ccc23)cc(OC)c1OC | ≥ 125 | ≥ 125 | –
COc1ccc(C(=O)N(C)c2cc(OC)c(OC)c(OC)c2)cc1 | ≥ 125 | ≥ 125 | –
COc1cc(NC(=O)Nc2ccc([N+](=O)[O-])cc2)cc(OC)c1OC | 35 | 70.8 | –
COc1cc(N(C)C(=O)c2ccc([N+](=O)[O-])cc2)cc(OC)c1OC | ≥ 125 | ≥ 125 | –
COc1cc(NC(=O)Nc2cccc3cc4ccccc4cc23)cc(OC)c1OC | 10 | 1.25 | Ratio IC50 (ONS-76 [3]): 0.25; Ratio IC50 (Daoy [4]): 4.7
COc1cc(N(C)C(=O)c2ccccc2)cc(OC)c1OC | ≥ 125 | ≥ 125 | –
COc1ccc(NC(=O)Nc2cc(OC)c(OC)c(OC)c2)cc1 | 12.9 | 14.8 | –
COc1cc(NC(=O)c2ccccc2)cc(OC)c1OC | ≥ 125 | ≥ 125 | –
